The values below come from ChEMBL document CHEMBL1132048, “Optimisation of the P2 pharmacophore in a series of thrombin inhibitors: ion-dipole interactions with lysine 60G” (Bioorg Med Chem Lett, 1999).

Usually pKa stands for the pH at which an ionisable group is half protonated. Lower therefore signals a group that gives up its proton readily. Usually Ki stands for the equilibrium dissociation constant of an inhibitor or competing ligand from its target. A lower Ki goes with a stronger hold on the target.

Test system in the first data set: not listed separately
Nature of the data set: pKa was determined. The data set is classed as physicochemical.
`NCCCC[C@H](N)C(=O)O` [LYSINE] registered a pKa of 10.2.

The next data set deals with Prothrombin (Homo sapiens, UniProt P00734). Nature of the data set: Inhibition of human thrombin (in vitro).
`CNS(=O)(=O)NCCC1CCN(C(=O)[C@H](Cc2nc3ccccc3s2)NS(=O)(=O)c2cccc3c2NCC(C)(C)C3)CC1` yielded a Ki of 119 nM.
Still for that read-out and setting: with `CC1(C)CNc2c(cccc2S(=O)(=O)N[C@@H](Cc2nc3ccccc3s2)C(=O)N2CCC(CCO)CC2)C1` the figure was 79 nM; with `CC1(C)CNc2c(cccc2S(=O)(=O)N[C@@H](Cc2nc3ccccc3s2)C(=O)N2CCC(CCNC(=O)OC(C)(C)C)CC2)C1`, 52 nM.
`CNC(=O)NCCC1CCN(C(=O)[C@H](Cc2nc3ccccc3s2)NS(=O)(=O)c2cccc3c2NCC(C)(C)C3)CC1` showed an inhibition constant Ki of 24 nM.
In the case of `CC1(C)CNc2c(cccc2S(=O)(=O)N[C@@H](Cc2nc3ccccc3s2)C(=O)N2CCC(CCN)CC2)C1`, the Ki is 1180 nM.
The same measure, in the same setting: the result for `CCCCNC(=O)NCCC1CCN(C(=O)[C@H](Cc2nc3ccccc3s2)NS(=O)(=O)c2cccc3c2NCC(C)(C)C3)CC1` reads 182 nM; that for `CC1(C)CNc2c(cccc2S(=O)(=O)N[C@@H](Cc2nc3ccccc3s2)C(=O)N2CCC(CCC(=O)O)CC2)C1`, 7830 nM; that for `CNC(=O)OCCC1CCN(C(=O)[C@H](Cc2nc3ccccc3s2)NS(=O)(=O)c2cccc3c2NCC(C)(C)C3)CC1`, 38 nM.
In turn, `CC1(C)CNc2c(cccc2S(=O)(=O)N[C@@H](Cc2nc3ccccc3s2)C(=O)N2CCN(CCO)CC2)C1` showed a Ki of 350 nM.
The compound `CC1(C)CNc2c(cccc2S(=O)(=O)N[C@@H](Cc2nc3ccccc3s2)C(=O)N2CCC(CCF)CC2)C1` returned a Ki of 26 nM.
In turn, `CCC1CCN(C(=O)[C@H](Cc2nc3ccccc3s2)NS(=O)(=O)c2cccc3c2NCC(C)(C)C3)CC1` showed an inhibition constant (Ki) of 240 nM.
Turning to `CCNC(=O)NCCC1CCN(C(=O)[C@H](Cc2nc3ccccc3s2)NS(=O)(=O)c2cccc3c2NCC(C)(C)C3)CC1`, the affinity corresponds to a Ki of 65 nM.
Regarding `CC1(C)CNc2c(cccc2S(=O)(=O)N[C@@H](Cc2nc3ccccc3s2)C(=O)N2CCC(CCCl)CC2)C1`, the inhibitory constant (Ki) is 93 nM.
As for `CC(=O)NCCC1CCN(C(=O)[C@H](Cc2nc3ccccc3s2)NS(=O)(=O)c2cccc3c2NCC(C)(C)C3)CC1`, the Ki is 654 nM.
In turn, `CN(C)C(=O)NCCC1CCN(C(=O)[C@H](Cc2nc3ccccc3s2)NS(=O)(=O)c2cccc3c2NCC(C)(C)C3)CC1` came in with a Ki of 1000 nM.
In turn, `CN(C)CCC1CCN(C(=O)[C@H](Cc2nc3ccccc3s2)NS(=O)(=O)c2cccc3c2NCC(C)(C)C3)CC1` had an inhibition constant (Ki) of 38300 nM. This Ki lies about 38-fold higher than the previous one.
`COC(=O)NCCC1CCN(C(=O)[C@H](Cc2nc3ccccc3s2)NS(=O)(=O)c2cccc3c2NCC(C)(C)C3)CC1` came in with a Ki of 56 nM.
